Like-named read-outs stand apart in the source and are kept apart here.
Assays:
[1] = system: depression; details: cited from earlier work
[2] = system: impaired sexual function; details: cited from earlier work; for serum free testosterone concentration: mean ± SD
[3] = cited from earlier work
[4] = system: body weight; details: patch delivering 150 ug/day; 12 weeks; cited from earlier work
[5] = system: body fat and muscle mass; assay: Depression trial: percent body fat and fat-free mass index (FFMI); assay type: in vivo, treatment-refractory depressed men; details: study completers; mean (SD); not significant vs placebo
Procedure: (§1) Next, the subjects were administered: 1) basic demographic questions; 2) the remainder of the SCID; 3) questions regarding history of previous antidepressant drug treatment; 4) the HAM-D; 5) the BDI; 6) the Clinical Global Impression Scale (CGI); 7) medical history questions; 8) physical examination, including vital signs, height, weight, and digital rectal examination of the prostate; 9) laboratory tests for standard chemistries, hematology, urinalysis, and HIV serology; 10) electrocardiogram (EKG); and 11) determination of body fat with calipers, together with calculation of fat-free mass index (FFMI), a measure of muscularity previously developed in our laboratory.
(§2) Weeks 2, 4, 6, and 8: Subjects were assessed at weeks 2, 4,6 and 8 for HAM-D, BDI, CGI, adverse events, and vital signs. Week 8, subjects received an additional determination of PSA and measurement of weight and body fat. The blind was then broken and the correct identity of treatment assignment determined.
For laboratory measures, including body fat and FFMI, the mean difference between endpoint and baseline measures were used, and then compared the treatment groups using the t-test. The correlation coefficients were calculated by using rank-transformed data (Spearman rank correlation). All statistical tests were two-sided with alpha=0.05.

[6] = system: major depressive disorder; assay: Eight-week randomized placebo-controlled depression trial of testosterone gel: HAM-D, CGI, BDI; assay type: in vivo, treatment-refractory depressed men
Procedure: Men age 30-65 years, presently taking an adequate dose of antidepressant medication (as defined by the manufacturer's published product information) for at least the last four weeks, but still complaining of depressive symptoms sufficient to meet DSM-IV criteria for current major depressive disorder. Subjects were initially screened. […] Subjects were then administered the depression module the Structured Clinical Interview for DSM-IV (SCID) to confirm the diagnosis of current major depressive disorder. Subjects were next administered the American Urological Association (AUA) Symptom Index for benign prostatic hyperplasia (B PH), subjects scoring higher than 14 on this index were excluded. Blood was then collected for total testosterone and PSA levels.
as §1
Qualifying subjects were then started on a one-week single-blind placebo washout with placebo gel. All subjects were asked to continue taking their existing antidepressant medications, together with any other medications that they were prescribed, at their present dose throughout the study.
Baseline (Week 0): Subjects were assessed for scores on the HAM-D, BDI, and CGI-Severity of Illness; adverse events; and vital signs. Results from the laboratory tests drawn at screen and from EKG readings were also reviewed. […] Drug and placebo were supplied in identical-appearing packets that contained either 2.5 g of AndroGel or a placebo gel.
Week 1: Subjects were assessed for scores on the HAM-D, BDI, and CGI (both Severity of Illness and Improvement as compared to Baseline); adverse events; and vital signs. Subjects provided blood for a total testosterone level, drawn at least four hours after the morning application of the gel.
as §2
Statistical Analysis: Baseline characteristics of each group were compared using Fisher's exact test for categorical variables and the […] for continuous variables. Two populations of patients were defined: (1) an intent-to-treat group of patients with at least one available efficacy measure, and (2) a completers group, defined as patients who completed the 8-week treatment period.
The primary protocol-defined analysis of efficacy was a repeated measures random regression analysis comparing the rate of change of scores on the HAM-D, BDI, and CGI-severity during the treatment period between groups, using methods described by Diggle et al. and Gibbons et al. A model was used for the mean of the outcome variable that included terms for treatment, time, and treatment-by-time interaction. Time as a continuous variable was modeled, with weeks ranging from 0 (Baseline) to 8 (after randomization). The measure of effect was the treatment-by-time interaction (or the difference in the rate of change per unit of time, or the difference in slope with respect to time) of the efficacy measure. […]

[7] = 10 grams of 1% gel daily added to existing antidepressant, 8 weeks
[8] = Completers, Week 8 as endpoint, N = 10
[9] = Intent to Treat, last observation carried forward, N = 11

For `CCCCCCC(=O)O[C@H]1CC[C@H]2[C@@H]3CCC4=CC(=O)CC[C@]4(C)[C@H]3CC[C@]12C` [testosterone enanthate], the “mean HAM-D score” value ([1]; eight weeks, 400 mg every two weeks i.m. with SSRI, 19.2 at baseline, five men) is listed as 4.0, the “subjects responding (50% or greater reduction in HAM-D)” value ([1]; randomized placebo-controlled trial, six weeks) is listed as “About 40%” and the “HAM-D or BDI difference vs placebo” value ([1]; randomized placebo-controlled trial, six weeks, testosterone alone) is listed as “no significant difference between testosterone and placebo”.
For `C[C@]12CC[C@H]3[C@@H](CCC4=CC(=O)CC[C@@]43C)[C@@H]1CC[C@@H]2O` [testosterone], the “serum free testosterone concentration” value ([2]; 160 μg per day (so in the source) transdermally) is given as 3.9 ± 2.4 pg/mL, the “serum free testosterone concentration” value ([2]; 300 μg per day transdermally) is given as 4.9 ± 4.8 pg/mL and the “percentages of women with sexual fantasies, masturbation or intercourse at least once a week, increase from base line” value ([2]; 300 μg per day) is given as “two to three times”. For the same molecule, the “bound to protein in the blood” value ([3]; in vivo) was 98%, the half-life ([3]; reported in the literature) was 10 to 100 min and the “increase in body weight” value [4] was 4%. The “change in muscle mass as expressed by FFMI” value [5] was 1.1 (0.9) kg/meter^2, the “change in percent body fat” value [5] was −2.8 (1.7) % and the “CGI-severity scores compared with placebo” value [6, 7] was “significantly greater rates of decrease”. For the same molecule, the “HAM-D scores compared with placebo” value [6, 7] was “significantly greater rate of decrease”, the “BDI, Total Score: mean change from baseline to endpoint” value [6, 8] was −6.8 and the “CGI-Improvement (mean)” value [6, 8] was 2.9. For the same molecule, the “CGI-Severity: mean change from baseline to endpoint” value [6, 8] was −1.2, the “HAM-D, Affective Subscale: mean change from baseline to endpoint” value [6, 8] was −2.7 and the “HAM-D, Total score: mean change from baseline to endpoint” value [6, 8] was −8.8. For the same molecule, the “HAM-D, Vegetative Subscale: mean change from baseline to endpoint” value [6, 8] was −3.5, the “BDI, Total Score: mean change from baseline to endpoint” value [6, 9] was −5.5 and the “CGI-Improvement (mean)” value [6, 9] was 3.09. For the same molecule, the “CGI-Severity: mean change from baseline to endpoint” value [6, 9] was −0.9, the “HAM-D, Affective Subscale: mean change from baseline to endpoint” value [6, 9] was −2.1 and the “HAM-D, Total score: mean change from baseline to endpoint” value [6, 9] was −7.4. The “HAM-D, Vegetative Subscale: mean change from baseline to endpoint” value [6, 9] was −3.2.
